These results are taken from article PMC4189421, “Induction of Oligodendrocyte Differentiation and In Vitro Myelination by Inhibition of Rho-Associated Kinase” (ASN NEURO, 2014).

Experiment [1] has as its system cerebellar organotypic cultures. The experiment in a line: Remyelination in lysolecithin-demyelinated cerebellar slices (qPCR of MBP, PLP, MOG). The following applies: 10 µM, 10-day incubation post-lysolecithin, vs 0.1% DMSO. The format is cell-based, rat. (In general: In qPCR the cycle at which signal appears reflects the starting amount.)
Method: In brief, after careful dissection to keep the tissue intact, cerebella of postnatal Days 4 to7 wild-type mouse pups were sectioned at 400 -µm thickness using a Leica VT1000S vibratome. […] When the slices were firmly attached, fresh medium was added to cover the tissue, and the cultures were maintained under these conditions for 4 days. […] Treatments with compounds were initiated at this point, and the cultures maintained for 4 to 10 additional days. Demyelination–remyelination was assessed by real-time polymerase chain reaction (PCR).
Total RNA was isolated from single-cell cultures or tissue explants using Tri-Zol reagent (Gibco). cDNA was generated from 1 to 3 µg of total RNA by Retrotranscriptase II (Gibco) reaction, and the selected transcripts were detected and amplified by quantitative RT-PCR in an Applied Biosystems (Grand Island, NY) 7500 fast qPCR machine, following the manufacturer’s instructions.
Experiment [2] concerns hPSC-OPCs cocultured with rat dorsal root ganglion neurons. The experiment can be described thus: Myelination in hPSC-OPC / rat DRG neuron cocultures (MBP/NF overlap). The format is cell-based, human. The note with it: compound for first 48 hr, 28 days coculture. On the procedure: Human pluripotent stem cell-derived OPC (hSC-OPC)/[…] dorsal root ganglion (rDRG) cocultures were carried out as follows: 5,000 hES-OPCs were seeded on top of 14-day-old DRG neuron axons in each well of 96-well black μClear plates (Greiner). The cells were seeded in 100 μl of myelination media (MYL) for each well. Twenty-four hours after seeding, media were gently removed, and a fresh MYL medium that contained the compound of interest at a specific dilution (in 0.1% DMSO) was supplemented to the media (first feeding), and the total volume for each well was 200 μl. For each tested compound dose, four replicates were used. After 48 hr, the media were replenished by removing 100 μl of media, and fresh MYL medium (that contains 0.1% DMSO) was added to the wells. […]
The ArrayScan VTI HCS reader system (Cellomis, Thermo-scientific) was used for scanning 49 fields for each tested well under 10× objective. […] The four-parameter Hill-Slope curve fittings were generated by GraphPad Prism software using least squares fitting method, and EC50 values were calculated for the three major parameters of oligodendrocyte myelination: number of differentiated oligodendrocytes, areas of myelinated axons in pixels (MBP and NF overlap area), and number of myelinated regions (MBP and NF overlap count). […]

`C[C@@H](N)[C@H]1CC[C@H](C(=O)Nc2ccncc2)CC1.Cl.Cl` [Y0503, trans-4-[(1 R)-1-aminoethyl]-N-4-pyridinylcyclohexanecarboxamide dihydrochloride]: the “Expression of MBP, PLP, MOG mRNAs in demyelinated cerebellar slices (qPCR)” value in experiment [1] was “significant increase”. Further, in experiment [2], the “Number and length of MBP-positive oligodendrocyte processes colocalized with NF-positive axons” value is recorded as “dose-response effect”.
